Assay in all cases: relative viability (nuclei count vs DMSO), 5 days (fraction); higher = more cells survive
Compound in the experiment “Obatoclax + Dasatinib”: COC1=CC(c2cc3ccccc3[nH]2)=N/C1=C\c1[nH]c(C)cc1C [Obatoclax] + Cc1nc(Nc2ncc(C(=O)Nc3c(C)cccc3Cl)s2)cc(N2CCN(CCO)CC2)n1 [Dasatinib] (partner 0.075 µM)
A digest of the protocol: (§1)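 Lung cancer cell lines in 1536-well plates got either a single drug or a fixed anchor-drug dose together with five library-drug doses (not always all listed) in √10 steps, by pin tool, on the day after seeding. Nuclei were counted after 5 days, and relative viability is the treated-to-vehicle ratio of nuclei counts. Values are medians of duplicate plates.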

Compound in the experiment “Obatoclax + Decitabine”: COC1=CC(c2cc3ccccc3[nH]2)=N/C1=C\c1[nH]c(C)cc1C [Obatoclax] + Nc1ncn([C@H]2C[C@H](O)[C@@H](CO)O2)c(=O)n1 [Decitabine] (partner 2 µM)
The method, boiled down:
as §1

Compound in the experiment “Obatoclax + OSI-027”: COC1=CC(c2cc3ccccc3[nH]2)=N/C1=C\c1[nH]c(C)cc1C [Obatoclax] + COc1cccc2cc(-c3nc([C@H]4CC[C@H](C(=O)O)CC4)n4ncnc(N)c34)[nH]c12 [OSI-027] (partner 0.5 µM)
A digest of the protocol: as §1

Compound in the experiment “Bortezomib + Luminespib”: CC(C)C[C@H](NC(=O)[C@H](Cc1ccccc1)NC(=O)c1cnccn1)B(O)O [Bortezomib] + CCNC(=O)c1noc(-c2cc(C(C)C)c(O)cc2O)c1-c1ccc(CN2CCOCC2)cc1 [Luminespib] (partner 0.01 µM)
The method, boiled down: as §1

These results are taken from the supplement of paper PMC10307832.

Regarding NCI-H650, the relative viability with Obatoclax + Dasatinib (first compound 0.01 µM) is 0.451; with Obatoclax + Dasatinib (first compound 0.03162 µM) it was 0.431; in the experiment with Obatoclax + Dasatinib (first compound 0.3162 µM), 0.279; in the experiment with Obatoclax + Dasatinib (first compound 1 µM), 0.263; with Obatoclax + Decitabine (first compound 0.01 µM), 0.299; in the experiment with Obatoclax + Decitabine (first compound 0.03162 µM), 0.312. Moreover, the relative viability stood at 0.237 with Obatoclax + Decitabine (first compound 0.3162 µM); 0.217 with Obatoclax + Decitabine (first compound 1 µM); 0.568 with Obatoclax + OSI-027 (first compound 0.01 µM); 0.449 in the experiment with Obatoclax + OSI-027 (first compound 0.03162 µM); 0.419 in the experiment with Obatoclax + OSI-027 (first compound 0.3162 µM); 0.274 in the experiment with Obatoclax + OSI-027 (first compound 1 µM). Also, the relative viability in the experiment with Bortezomib + Luminespib (first compound 0.000632 µM) was 0.731; with Bortezomib + Luminespib (first compound 0.002 µM) it was 0.676; with Bortezomib + Luminespib (first compound 0.006325 µM), 0.469; with Bortezomib + Luminespib (first compound 0.02 µM) it was 0.155.
